For one data set, the target named is ABL1(wt) (Homo sapiens, UniProt P00519). As to the kind of experiment: Z′-LYTE assay (labeled peptide cleavage), ABL1(wt). It counts as biochemical. The source says: (§1) This Example describes a cell-free assay utilized to identify candidate compounds that bind to and inhibit protein kinase (PK) and PK variants. One assay is referred to as a “Z′-LYTE assay” and is an example of a labeled peptide cleavage assay. The fluorescence-based assay relies on the differential sensitivity of a small, dual-end-labelled peptide to cleavage by a protease, dependent on the phosphorylation state of the peptide (FIG. 1). The peptide substrate is end-labelled with two distinct fluorophores that comprise a Fluorescence Resonance Energy Transfer (FRET) pair.
(§2) In the absence of inhibitor, the kinase transfers the gamma-phosphate from ATP to the single, unique tyrosine, serine or threonine in the synthetic FRET peptide. The reaction conditions are titrated such that 10-40% of the peptide substrate is phosphorylated. In a second reaction, a site-specific protease that only recognizes and cleaves the non-phosphorylated FRET peptide is added. Cleavage interferes with FRET between the donor (i.e., coumarin) and the acceptor (i.e., fluorescein) fluorophores on the FRET-peptide substrate, unlike the phosphorylated, uncleaved peptide.
(§3) The Test Compounds are screened in 1% DMSO (final) in the well.
(§4) All Peptide/Kinase Mixtures are diluted to a 2× working concentration in the appropriate Kinase Buffer. The 2×ABL1 polypeptide/Tyr 02 substrate peptide mixture is prepared in 50 mM HEPES pH 7.5, 0.01% BRIJ-35, 10 mM MgCl2, 1 mM EGTA. The final 10 μL Kinase Reaction contains 0.3-1.2 ng ABL1 (or 1.36-6 ng ABL1(T315I)) and 2 μM Tyr 02 in 50 mM HEPES, pH 7.5, 0.01% BRIJ-35, 10 mM MgCl2, 1 mM EGTA. After the 1-hour Kinase Reaction incubation, 5 μL of a 1:128 dilution of Development Reagent A is added. The ABL1(wt) polypeptide utilized for the assay described in this Example was the “isoahABL1(wt)” polypeptide described herein (SEQ ID NO:4), which is referred to as “ABL1” in Table 1 and “ABL1(wt)” or “WT” in Table 3 of this Example. The ABL1 variant polypeptides utilized contained the same polypeptide as the “isoahABL1(wt)” polypeptide except that each contained one corresponding amino acid substitution chosen from E255K, F317I, F317L, G250E, T315I or Y253F. […]
(§5) All ATP Solutions are diluted to a 4× working concentration in Kinase Buffer (50 mM HEPES, pH 7.5, 0.01% BRIJ-35, 10 mM MgCl2, 1 mM EGTA). The ATP Km apparent (Km app) is previously determined using a Z′-LYTE assay.
(§6) Bar-coded Corning, low volume NBS, black 384-well plate (Corning Cat. #4514) • 1. […] Read on fluorescence plate reader and analyze the data
A known inhibitor control standard curve, 10-point titration, is run for each individual kinase on the same plate as the kinase to ensure the kinase is inhibited within an expected IC50 range previously determined. […]

The next data set addresses T1, ABL1 T315I (Homo sapiens, UniProt P00519, T315I).
T1 construct: The ABL1 variant polypeptides utilized contained the same polypeptide as the “isoahABL1(wt)” polypeptide except that each contained one corresponding amino acid substitution
As to the kind of experiment: Z′-LYTE assay, ABL1 T315I. It counts as biochemical.
Text: as §1, §2, §3, §4, §5, §6

A short description of data set [1]: non-GLP multi-dose toxicity study (dose escalation, daily IP injection). The settings on record: mice; for tolerability: daily IP. It counts as in vivo, mouse (6-week-old Balb/c females). The protocol:
An initial non-GLP multi-dose toxicity study of Cmpd11 and Cmpd66 was performed, which included a comparison to COM1 and COM3 clinical compounds. […] Body weights were recorded 2× weekly for healthy mice followed by weekly in the recovery phase. Blood draws were taken, retro-orbitally, every other week (for a total of three blood draws per group) to determine the plasma levels of compounds throughout the duration of the study (unless mice were euthanized prior to completion of the 28-day dosing period). […] Any animals showing more than 9% weight loss were weighed every day and animals were euthanized after a weight loss of 15% or more or evidence of high distress (e.g., listless, hunched posture, high grimace score). Also, plasma samples were drawn at euthanasia. Control groups included vehicle only and no manipulation.
A summary of the study is illustrated in FIG. 14. There are six groups with 90 mice total and following is an overview of groups for the study.
The following are criteria for dose escalation and staggering of group starting points. Animals in each group are monitored after the initial dose for 3-4 days, and if there is no observed dose-limiting toxicity (DLT), then a separate cohort of naïve animals are administered the next higher dose level. Note that each cohort of animals receives the same drug and drug dose for the duration of the 28-day dosing period unless euthanasia is required. Animals in the second, dose-escalated group, are then monitored for 3-4 days, and if there is no observed DLT, animals from a fresh cohort are administered the next higher dose level, while continuing with the former cohorts up to 5 dose levels total. Animals in each cohort then are monitored after the third dose for 7 days, and if there is no observed DLT, then animals are administered the next higher doses. If DLT is observed during a monitoring period for any dose level, a subsequent dose is reduced by a level that is intermediate between the highest tolerated level tested and the minimum toxic level tested.

The next data set concerns NALM-21. As to the kind of experiment: In vitro cytotoxic activity (CellTiterGlo), NALM-21 (ALL). The settings on record: Homo sapiens; 48-hours; read-out: NALM-21 LD50. It counts as cell-based. As to the method: (§7) Non-metabolized targeted toxicity, or general toxicity, of compounds was assessed by treating a panel of selected cell lines in culture with a dilution series of test compounds and the lethal dose that will kill half of the cells (i.e., the LD50) was determined. Compounds herein were assayed against a panel of cytokine-independent Philadelphia chromosome (BCR-ABL1 translocation) positive (Ph+) leukemia and lymphoma cell lines along with several control cell lines that were ABL1-independent. The panel included murine cell lines BaF3-wildtype (wt), BaF3-mutants (BaF3-wt cells engineered to be reliant on various kinase domain mutations with the BCR-ABL1 fusion protein), and various ALL and CML human cell lines, including SD-1, TOM-1, NALM-21, K562, Jeko-1, BV173, and KCL-22.
(§8) To test the cytotoxic activity of compounds herein, 1.6E4 cells were plated in 96-well plates at a final volume of 135 μL per well. Compounds were then added to the wells. In general, final concentrations of compounds started at a maximum concentration of […] and were diluted by half-log concentrations down to a final concentration of 0.316 nM. However, different cell lines required varying drug concentration ranges for optimal LD50 calculations. To create half-log dilutions, 40 mM DMSO solutions of compounds were diluted in half-log iterations to generate 400× starting concentration of compounds in DMSO. The 400× compound solutions were then diluted by 40-fold by adding 5 μL of 400× DMSO stock to 195 μL cell culture media, generating 10× drug concentrations in cell culture media. Then 15 μL of the 10× drug solutions were added to the 135 μL volume of cell suspension, resulting in 1× final drug concentrations with 0.25% DMSO in all wells. 48-hours after adding compounds, cells were measured for relative viability to generate cytotoxicity curves associated with the varying concentrations of compounds. […] LD50 values were measured by normalizing luminescence intensity to the lowest drug concentration. GraphPad Prism was used to plot and calculate LD50 values from the cytotoxic kill curves. Curves were fit to a non-linear regression model, with compound concentration vs. response and variable slope (four parameters).
Background: In ATP-based viability assays light output follows the ATP content of the culture.

In another data set the test system is K562. As to the kind of experiment: In vitro cytotoxic activity (CellTiterGlo), K562 (CML). It counts as cell-based. To be noted: Homo sapiens, 48-hours, read-out: K562 LD50. As to the method: as §7, §8

SMILES strings stand for the structures. pIC50: −log10 of the molar value. Read-outs that look alike come from different tables or passages of the source. A value given as a limit tells only on which side of the number the result lay.

For `CNC(=O)c1ccc(C(=O)Nc2cc(Nc3ncc4cccc(-c5ccc(F)cc5OC(C)C)c4n3)ccc2C)cc1` [Cmpd10], the pIC50 at ABL1(wt) (class by IC50 values in Table 5, read-out: inhibitor class of ABL1(wt) according to IC50) was greater than 7.70; at ABL1(wt) (test compounds, Z′-LYTE, read-out: IC50 values for test compounds, ABL1(wt)), 7.95; on ABL1 T315I (class by IC50 values in Table 5, read-out: inhibitor class of ABL(T315I) according to IC50), greater than 7.70; on ABL1 T315I (test compounds, Z′-LYTE, read-out: IC50 values for test compounds, ABL1(T315I)) it was 8.41.

Consider `Cc1ccc(Nc2ncc3cccc(-c4ccc(F)cc4OC(C)C)c3n2)cc1NC(=O)C1CCN(C)CC1` [Cmpd66, N-(5-((8-(4-fluoro-2-isopropoxyphenyl)quinazolin-2-yl)amino)-2-methylphenyl)-1-methylpiperidine-4-carboxamide], for which the “tolerability relative to COM1” value in data set [1] (at doses required to reach the in vitro K562-Luc EC50 plasma levels in vivo, early results) is listed as “more tolerable than COM1”. The tolerability entry is on record as “well tolerated” in data set [1] (1.5 mg/kg, through day 24); “well tolerated” in data set [1] (4.5 mg/kg, at day 21); “well tolerated” in data set [1] (maximum dose of 18 mg/kg, at day 14). In addition, the pIC50 is 6.88 in the data set with NALM-21 and 6.85 with K562.

Regarding `Cc1ccc(C(=O)Nc2ccc(CN3CCN(C)CC3)c(C(F)(F)F)c2)cc1C#Cc1cnc2cccnn12` [ponatinib], the pIC50 in the data set with NALM-21 is 5.44; in the data set on K562, 5.49.

Turning to `Cc1ccc(Nc2ncc3cccc(-c4ccc(F)cc4OC(C)C)c3n2)cc1NC(=O)c1ccc(C(=O)N2CCN(C)CC2)cc1` [Cmpd44, N-(5-((8-(4-fluoro-2-isopropoxyphenyl)quinazolin-2-yl)amino)-2-methylphenyl)-4-(4-methylpiperazine-1-carbonyl)benzamide], the figures for the pIC50 in the data set with NALM-21 and in the data set on K562 were 6.55 and 6.52, respectively.

For `Cc1ccc(Nc2ncc3cccc(-c4ccc(F)cc4OC(C)C)c3n2)cc1NC(=O)CN1CCN(C)CC1` [Cmpd58, N-(5-((8-(4-fluoro-2-isopropoxyphenyl)quinazolin-2-yl)amino)-2-methylphenyl)-2-(4-methylpiperazin-1-yl)acetamide], the values for the pIC50 with NALM-21 and with K562 were 6.87 and 6.91, respectively.

These data come from patent US20260297035A1, “PROTEIN KINASE INHIBITORS AND USES THEREOF” (DELiver Therapeutics, Inc., priority 2023, published 2026).
